Data from patent US20080138390A1, “Transdermal Delivery System For Use With Basic Permeation Enhancers” (priority 2004, published 2008).

Columns and labels:
[1] = In vitro skin permeation of diclofenac sodium from transdermal systems, Franz diffusion cells; assay type: in vitro ADME, human; settings: for cumulative amount of diclofenac that permeated through the skin: human cadaver skin, 32° C., 24-hour study
[2] = In vitro skin permeation of testosterone from transdermal systems, Franz diffusion cells; settings: for cumulative amount of testosterone that permeated through the skin: human cadaver skin, receiver 30% NMP
Description: An in vitro skin permeation study was conducted using two testosterone transdermal delivery systems.
The backing/active agent-in-adhesive film was then pressed onto the skin with the adhesive side facing the stratum corneum. […] Three diffusion cells were used for each formulation. The receiver solution was 30% N-methyl pyrrolidone (NMP) in 70% DI H2O (v/v). The entire receiver solution was collected and replaced with fresh 30% NMP solution at each time point. The receiver solution collected was analyzed by HPLC to determine the concentration of testosterone. The cumulative amount of testosterone that permeated across the human cadaver skin was calculated using the measured testosterone concentrations in the receiver solutions, and the results were plotted versus time (FIG. 3).

SMILES	cumulative amount of diclofenac that permeated through the skin ([1]; PVPP powder added (Formulation B by Table 1)) [mg/cm^2]	cumulative amount of diclofenac permeated relative to absence of the powder ([1]; PVPP powder added vs no PVPP powder)	cumulative amount of diclofenac that permeated through the skin ([1]; PVPP powder in combination with polyethylene oxide (Formulation C by Table 1)) [mg/cm^2]	cumulative amount of diclofenac that permeated through the skin ([1]; no PVPP powder added (Formulation D by Table 1)) [mg/cm^2]	cumulative amount of diclofenac that permeated through the skin ([1]; powdered starch, poly(acrylamide-acrylic acid) sodium salt instead of PVPP (Formulation A by Table 1)) [mg/cm^2]	cumulative amount of testosterone that permeated through the skin ([2]; 0.75 g PVPP powder added (Formulation J by Table 5)) [mg/cm^2]	cumulative amount of testosterone permeated relative to absence of the powder ([2]; 0.75 g PVPP powder vs no PVPP powder)	cumulative amount of testosterone that permeated through the skin ([2]; no PVPP powder added (Formulation I by Table 5)) [mg/cm^2]
O=C(O)Cc1ccccc1Nc1c(Cl)cccc1Cl [diclofenac, diclofenac sodium]	2.41	more than five times	2.05	0.48	1.03			
C[C@]12CC[C@H]3[C@@H](CCC4=CC(=O)CC[C@@]43C)[C@@H]1CC[C@@H]2O [testosterone]						0.70	almost twice	0.40
